Consider one molecule from ChEMBL document CHEMBL2311291, “Novel P2 tris-tetrahydrofuran group in antiviral compound 1 (GRL-0519) fills the S2 binding pocket of selected mutants of HIV-1 protease” (J Med Chem, 2013).

Experiment [1] concerns the target Human immunodeficiency virus type 1 protease (Human immunodeficiency virus 1, UniProt Q72874, I54M). Put plainly: Inhibition of HIV-1 protease I54M mutant using Abz-Thr-Ile-Nle-p-nitro-Phe-Gln-Arg-NH2 as substrate incubated for 5 mins prior to substrate addition measured for 5 mins by fluorescence assay.
Experiment [2] concerns the target Human immunodeficiency virus type 1 protease (Human immunodeficiency virus 1, UniProt Q72874, I50V). Briefly: Inhibition of HIV-1 protease I50V mutant using Abz-Thr-Ile-Nle-p-nitro-Phe-Gln-Arg-NH2 as substrate incubated for 5 mins prior to substrate addition measured for 5 mins by fluorescence assay.
For experiment [3], the target named is Human immunodeficiency virus type 1 protease (Human immunodeficiency virus 1, UniProt Q72874, D30N). Put plainly: Inhibition of HIV-1 protease D30N mutant using Abz-Thr-Ile-Nle-p-nitro-Phe-Gln-Arg-NH2 as substrate incubated for 5 mins prior to substrate addition measured for 5 mins by fluorescence assay.
Experiment [4] addresses Human immunodeficiency virus type 1 protease (Human immunodeficiency virus 1, UniProt Q72874, R8Q). Briefly: Inhibition of HIV-1 protease R8Q mutant using Abz-Thr-Ile-Nle-p-nitro-Phe-Gln-Arg-NH2 as substrate incubated for 5 mins prior to substrate addition measured for 5 mins by fluorescence assay.
A further experiment has as its target Protease (Human immunodeficiency virus 1, UniProt Q9YQ12). Put plainly: Inhibition of HIV-1 wildtype protease using Abz-Thr-Ile-Nle-p-nitro-Phe-Gln-Arg-NH2 as substrate incubated for 5 mins prior to substrate addition measured for 5 mins by fluorescence assay.
For experiment [5], the system named is Human immunodeficiency virus 1. Put plainly: Ratio of Ki for HIV-1 protease V82A mutant to Ki for HIV-1 wildtype protease.
For experiment [6], the system named is Human immunodeficiency virus 1. Put plainly: Ratio of Ki for HIV-1protease I54M mutant to Ki for HIV-1 wildtype protease.
Experiment [7] concerns Human immunodeficiency virus 1. Briefly: Ratio of Ki for HIV-1 protease D30N mutant to Ki for HIV-1 wildtype protease.
Experiment [8] relates to Human immunodeficiency virus 1. Briefly: Ratio of Ki for HIV-1 protease I50V mutant to Ki for HIV-1 wildtype protease.
Experiment [9] addresses Human immunodeficiency virus type 1 protease (Human immunodeficiency virus 1, UniProt Q72874, V82A). Briefly: Inhibition of HIV-1 protease V82A mutant using Abz-Thr-Ile-Nle-p-nitro-Phe-Gln-Arg-NH2 as substrate incubated for 5 mins prior to substrate addition measured for 5 mins by fluorescence assay.
Experiment [10] concerns Human immunodeficiency virus 1. Put plainly: Ratio of Ki for HIV-1 protease R8Q mutant to Ki for HIV-1 wildtype protease.

Chain of Protease (Q9YQ12 whole entry): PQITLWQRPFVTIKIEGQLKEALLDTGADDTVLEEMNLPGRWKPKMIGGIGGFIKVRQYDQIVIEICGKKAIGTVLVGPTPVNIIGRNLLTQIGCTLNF

Turning to `COc1ccc(S(=O)(=O)N(CC(C)C)C[C@@H](O)[C@H](Cc2ccccc2)NC(=O)O[C@H]2CO[C@H]3O[C@@H]4OCC[C@@H]4[C@H]32)cc1`, the inhibitory constant (Ki) in experiment [1] came to 3.5 nM; in experiment [2] it was 30.9 nM; in experiment [3] it was 8.9 nM; in experiment [4], 1.2 nM; at Protease it was 0.5 nM; in experiment [9], 3.2 nM. Also, the Ratio Ki came out at 6 in experiment [5]; 7 in experiment [6]; 18 in experiment [7]; 60 in [8]; 2 in experiment [10].
